In ChEMBL document CHEMBL1157690, “Reliability of bond dissociation enthalpy calculated by the PM6 method and experimental TEAC values in antiradical QSAR of flavonoids” (Bioorg Med Chem, 2010):

Key:
[1] = DPPH radical scavenging activity assessed as trolox equivalent antioxidant capacity; type: functional
[2] = ABTS radical scavenging activity assessed as trolox equivalent antioxidant capacity; type: physicochemical
[3] = Antioxidant activity assessed as ABTS radical scavenging activity; type: functional

## C[C@@H]1O[C@@H](Oc2cc(O)c3c(=O)c(O[C@@H]4O[C@H](CO)[C@@H](O)[C@H](O)[C@H]4O)c(-c4ccc(O)c(O)c4)oc3c2)[C@@H](O)[C@H](O)[C@@H]1O
[1]
  Activity: 1.63 MU
[2]
  Activity: 1.56 MU

## O=C1O[C@H]([C@@H](O)CO)C(O)=C1O
[3]
  Activity: 100 mg/L

## Oc1cc(O)c2c(c1)OC(c1ccc(O)c(O)c1)C(O)C2 (stereo not given)
[1]
  Activity: 2.95 MU

## Oc1cc(O)c2c(c1)O[C@H](c1ccc(O)c(O)c1)[C@H](O)C2 [(-)-EPICATECHIN]
[1]
  Activity: 3.18 MU
[2]
  Activity: 3.08 MU

## O=c1cc(-c2ccc(O)cc2)oc2cc(O)cc(O)c12 [APIGENIN]
[1]
  Activity: 0.041 MU
[2]
  Activity: 0.086 MU

## O=c1cc(-c2ccc(O)cc2)oc2cc(O[C@@H]3O[C@H](CO)[C@@H](O)[C@H](O)[C@H]3O)cc(O)c12 [APIGETRIN]
[1]
  Activity: 0.05 MU
[2]
  Activity: 0.083 MU

## O=c1cc(-c2ccccc2)oc2cc(O)c(O)c(O)c12 [BAICALEIN]
[1]
  Activity: 2.74 MU
[2]
  Activity: 2.56 MU

## O=C(O)[C@H]1O[C@@H](Oc2cc3oc(-c4ccccc4)cc(=O)c3c(O)c2O)[C@H](O)[C@@H](O)[C@@H]1O [BAICALIN]
[1]
  Activity: 1.79 MU
[2]
  Activity: 1.55 MU

## O=C(/C=C/c1ccc(O)c(O)c1)c1ccc(O)cc1O [BUTEIN]
[1]
  Activity: 2.27 MU
[2]
  Activity: 2.42 MU

## O=C(O[C@H]1Cc2c(O)cc(O)cc2O[C@@H]1c1ccc(O)c(O)c1)c1cc(O)c(O)c(O)c1 [CATECHIN GALLATE]
[1]
  Activity: 5.56 MU
[2]
  Activity: 5.25 MU

## Oc1cc(O)c2c(c1)O[C@H](c1ccc(O)c(O)c1)[C@@H](O)C2 [CATECHIN]
[2]
  Activity: 3.04 MU

## O=c1cc(-c2ccccc2)oc2cc(O)cc(O)c12 [CHRYSIN]
[1]
  Activity: 0.053 MU
[2]
  Activity: 0.081 MU

## O=c1c(-c2ccc(O)cc2)coc2cc(O)ccc12 [DAIDZEIN]
[1]
  Activity: 0.033 MU
[2]
  Activity: 0.101 MU

## O=c1c(-c2ccc(O)cc2)coc2cc(O[C@@H]3O[C@H](CO)[C@@H](O)[C@H](O)[C@H]3O)ccc12 [DAIDZIN]
[1]
  Activity: 0.035 MU
[2]
  Activity: 0.072 MU

## O=C(O[C@@H]1Cc2c(O)cc(O)cc2O[C@@H]1c1ccc(O)c(O)c1)c1cc(O)c(O)c(O)c1 [EPICATECHIN GALLATE]
[1]
  Activity: 5.26 MU
[2]
  Activity: 5.29 MU

## Oc1cc(O)c2c(c1)O[C@H](c1cc(O)c(O)c(O)c1)[C@H](O)C2 [EPIGALLOCATECHIN]
[1]
  Activity: 3.56 MU
[2]
  Activity: 3.71 MU

## O=C(O[C@@H]1Cc2c(O)cc(O)cc2O[C@@H]1c1cc(O)c(O)c(O)c1)c1cc(O)c(O)c(O)c1 [EPIGALOCATECHIN GALLATE]
[1]
  Activity: 6.08 MU
[2]
  Activity: 5.95 MU

## O=c1c(O)c(-c2ccccc2)oc2ccccc12 [FLAVONOL]
[1]
  Activity: 0.484 MU
[2]
  Activity: 0.707 MU

## O=c1c(O)c(-c2ccccc2)oc2cc(O)cc(O)c12 [GALANGIN]
[1]
  Activity: 0.705 MU
[2]
  Activity: 1.12 MU

## O=c1cc(-c2ccc(O)c(O)c2)oc2cc(O[C@@H]3O[C@H](CO)[C@@H](O)[C@H](O)[C@H]3O)cc(O)c12 [GALUTEOLIN]
[1]
  Activity: 1.39 MU
[2]
  Activity: 1.47 MU

## O=c1c(-c2ccc(O)cc2)coc2cc(O)cc(O)c12 [GENISTEIN]
[1]
  Activity: 0.095 MU
[2]
  Activity: 0.123 MU

## O=c1c(-c2ccc(O)cc2)coc2cc(O[C@@H]3O[C@H](CO)[C@@H](O)[C@H](O)[C@H]3O)cc(O)c12 [GENISTIN]
[1]
  Activity: 0.026 MU
[2]
  Activity: 0.077 MU

## COc1cc2c(=O)c(-c3ccc(O)cc3)coc2cc1O [GLYCITEIN]
[1]
  Activity: 0.02 MU
[2]
  Activity: 0.097 MU

## COc1ccc([C@@H]2CC(=O)c3c(O)cc(O)cc3O2)cc1O [HESPERETIN]
[1]
  Activity: 0.268 MU
[2]
  Activity: 0.403 MU

## COc1ccc([C@@H]2CC(=O)c3c(O)cc(O[C@@H]4O[C@H](CO[C@@H]5O[C@@H](C)[C@H](O)[C@@H](O)[C@H]5O)[C@@H](O)[C@H](O)[C@H]4O)cc3O2)cc1O [HESPERIDIN]
[1]
  Activity: 0.075 MU
[2]
  Activity: 0.104 MU

## O=c1c(O[C@@H]2O[C@H](CO)[C@@H](O)[C@H](O)[C@H]2O)c(-c2ccc(O)c(O)c2)oc2cc(O)cc(O)c12 [ISOQUERCETIN]
[1]
  Activity: 2.16 MU
[2]
  Activity: 2.39 MU

## O=c1c(O)c(-c2ccc(O)cc2)oc2cc(O)cc(O)c12 [KAEMPFEROL]
[1]
  Activity: 1.32 MU
[2]
  Activity: 1.59 MU

## O=c1cc(-c2ccc(O)c(O)c2)oc2cc(O)cc(O)c12 [LUTEOLIN]
[1]
  Activity: 2.24 MU
[2]
  Activity: 2.18 MU

## O=c1c(O)c(-c2ccc(O)cc2O)oc2cc(O)cc(O)c12 [MORIN]
[1]
  Activity: 2.75 MU
[2]
  Activity: 2.68 MU

## O=c1c(O)c(-c2cc(O)c(O)c(O)c2)oc2cc(O)cc(O)c12 [MYRICETIN]
[1]
  Activity: 1.38 MU
[2]
  Activity: 1.31 MU

## O=C1C[C@@H](c2ccc(O)cc2)Oc2cc(O)cc(O)c21 [NARINGENIN]
[1]
  Activity: 0.136 MU
[2]
  Activity: 0.217 MU

## C[C@@H]1O[C@@H](O[C@H]2[C@H](Oc3cc(O)c4c(c3)O[C@H](c3ccc(O)cc3)CC4=O)O[C@H](CO)[C@@H](O)[C@@H]2O)[C@H](O)[C@H](O)[C@H]1O [NARINGIN]
[1]
  Activity: 0.077 MU
[2]
  Activity: 0.098 MU

## O=C(CCc1ccc(O)cc1)c1c(O)cc(O)cc1O [PHLORETIN]
[1]
  Activity: 1.24 MU
[2]
  Activity: 1.79 MU

## Oc1cc(O)c2c(c1)O[C@H](c1ccc(O)c(O)c1)[C@H](O)[C@H]2c1c(O)cc(O)c2c1O[C@H](c1ccc(O)c(O)c1)[C@@H](O)C2 [PROCYANIDIN B1]
[1]
  Activity: 5.94 MU
[2]
  Activity: 6.14 MU

## Oc1cc(O)c2c(c1)O[C@H](c1ccc(O)c(O)c1)[C@H](O)[C@H]2c1c(O)cc(O)c2c1O[C@H](c1ccc(O)c(O)c1)[C@H](O)[C@H]2c1c(O)cc(O)c2c1O[C@H](c1ccc(O)c(O)c1)[C@H](O)C2 [PROCYANIDIN C1]
[1]
  Activity: 8.79 MU
[2]
  Activity: 8.29 MU

## O=c1c(O)c(-c2ccc(O)c(O)c2)oc2cc(O)cc(O)c12 [QUERCETIN]
[1]
  Activity: 4.6 MU
[2]
  Activity: 4.42 MU

## C[C@@H]1O[C@@H](Oc2c(-c3ccc(O)c(O)c3)oc3cc(O)cc(O)c3c2=O)[C@H](O)[C@H](O)[C@H]1O [QUERCITRIN]
[1]
  Activity: 2.57 MU
[2]
  Activity: 2.18 MU

## C[C@@H]1O[C@@H](OC[C@H]2O[C@@H](Oc3c(-c4ccc(O)c(O)c4)oc4cc(O)cc(O)c4c3=O)[C@H](O)[C@@H](O)[C@@H]2O)[C@H](O)[C@H](O)[C@H]1O [RUTIN]
[1]
  Activity: 2.33 MU
[2]
  Activity: 2.02 MU

## O=c1cc(-c2ccc(O)cc2)oc2c([C@@H]3O[C@H](CO)[C@@H](O)[C@H](O)[C@H]3O)c(O)cc(O)c12 [VITEXIN]
[1]
  Activity: 0.205 MU
[2]
  Activity: 0.216 MU
